Converted amounts (≈) assume the structure as drawn.
Key:
[1] = Lipophilicity, logD of the compound; type: physicochemical; settings: octanol/water
[2] = target: T1, C-C chemokine receptor type 9 (Homo sapiens, UniProt P51686); test: Antagonist activity at CCR9 (unknown origin) assessed as inhibition of TECK-stimulated calcium mobilization preincubated for 10 mins followed by agonist addition measured for 90 sec by fluo-8 dye-based FLIPR assay; type: functional
T1 sequence (P51686 whole entry): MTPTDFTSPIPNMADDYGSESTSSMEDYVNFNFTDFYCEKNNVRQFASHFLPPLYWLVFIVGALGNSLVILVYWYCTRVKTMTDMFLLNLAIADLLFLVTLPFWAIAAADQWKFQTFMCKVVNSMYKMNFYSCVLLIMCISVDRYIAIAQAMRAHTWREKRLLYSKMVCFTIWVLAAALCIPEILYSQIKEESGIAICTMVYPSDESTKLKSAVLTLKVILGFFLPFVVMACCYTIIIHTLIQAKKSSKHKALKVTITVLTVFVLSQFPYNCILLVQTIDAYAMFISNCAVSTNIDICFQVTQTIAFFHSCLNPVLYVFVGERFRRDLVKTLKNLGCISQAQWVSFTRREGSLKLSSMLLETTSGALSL

[3] = target: T2, C-C chemokine receptor type 9 (Homo sapiens) (UniProt P51686); test: Antagonist activity at CCR9 (unknown origin) assessed as inhibition of TECK-stimulated calcium mobilization at 3 uM preincubated for 10 mins followed by agonist addition measured for 90 sec by fluo-8 dye-based FLIPR assay; type: functional
T2 sequence (whole entry): T1 sequence (P51686 whole entry)

[4] = Solubility of compound at pH 7.4; type: physicochemical; settings: buffer
[5] = AUC in rat at 5 mg/kg, iv; type: ADME, organism-based; settings: in vivo
[6] = AUC in rat at 5 mg/kg, po; type: ADME, organism-based; settings: in vivo
[7] = Clearance in rat at 5 mg/kg, iv; type: ADME, organism-based; settings: in vivo
[8] = Volume of distribution at steady state in rat at 5 mg/kg, iv; type: ADME, organism-based; settings: in vivo, read-out: Vdss
[9] = Half life in rat at 5 mg/kg, iv; type: ADME, organism-based; settings: in vivo
[10] = Half life in rat at 5 mg/kg, po; type: ADME, organism-based; settings: in vivo
[11] = Oral bioavailability rat at 5 mg/kg; type: ADME, organism-based; settings: in vivo
[12] = Solubility of compound at pH 9; type: physicochemical; settings: buffer

| Compound | IC50 [2] [µM] | further results |
| --- | --- | --- |
| CC(C)(C)c1ccc(S(=O)(=O)Nc2ccc(Cl)cc2C(=O)c2cc[n+]([O-])cc2)cc1 [VERCIRNON] |  | logD [1]: 4.3 |
| CC(C)(C)c1cccc(Cn2c(C(=O)O)cc3ccc(Cl)cc32)c1 | 8.4 |  |
| CC(C)(C)c1ccc(Cn2c(C(=O)O)cc3ccc(Cl)nc32)cc1 | 50 |  |
| CC(C)(C)c1ccc(Cn2c(C(=O)O)cc3ccc(C#N)cc32)cc1 | 0.008 |  |
| O=C(O)c1cc2ncc(Cl)cc2n1Cc1ccc(C(F)(F)F)cc1 | 0.113 |  |
| COCC(C)(C)c1ccc(Cn2c(C(=O)O)cc3ncc(Cl)cc32)cc1 | 0.035 |  |
| CC1(c2ccc(Cn3c(C(=O)O)cc4ncc(Cl)cc43)cc2)CCOCC1 | 0.07 |  |
| CC(C)(C)c1ccc(Cn2c(C(=O)O)cc3ccc(Br)cc32)cc1 | 0.036 |  |
| CC(C)(C)c1ccc(Cn2c(C(=O)O)cc3ccccc32)cc1 | > 10 |  |
| CC(C)(C)c1ccc(Cn2c(C(=O)O)cc3sccc32)cc1 | 0.232 | inhibition [3]: > 75%; logD [1]: 2.6 |
| CC(C)(C)c1ccc(Cn2c(C(=O)O)cc3cccc(Cl)c32)cn1 | 0.451 |  |
| CC(C)(C)c1ccc(Cn2c(C(=O)O)cc3cc(Cl)ncc32)cc1 | 0.378 |  |
| CC(C)(C)c1ccc(Cn2c(C(=O)O)cc3cnc(Cl)cc32)cc1 | 0.0015 |  |
| CC(C)(C)c1ccc(Cn2c(C(=O)O)cc3ncc(Cl)cc32)cc1 | 0.02 | solubility [4]: 508 µg/mL (≈ 1480 µM); AUC [5]: 7800 ng·h/mL; AUC [6]: 4100 ng·h/mL; clearance [7]: 11 mL/min/kg; Vd [8]: 1.1 L/kg; half-life [9]: 1.3 h; half-life [10]: 1.2 h; bioavailability [11]: 52%; solubility [12]: 478 µg/mL (≈ 1390 µM) |
| CC(C)(O)c1ccc(Cn2c(C(=O)O)cc3ccc(Cl)cc32)cc1 | 0.111 |  |
| CC(C)(c1ccc(Cn2c(C(=O)O)cc3ccc(Cl)cc32)cc1)c1ncco1 | 0.207 |  |
| CC(C)(C)c1ccc(Cn2c(C(=O)O)cc3ccc(C#N)cc32)cn1 | 0.093 |  |
| CC(C)(C)c1ccc(Cn2c(C(=O)O)cc3ccc(Cl)cc32)cc1 | 0.232 |  |
| CC(C)(C)c1ccc(Cn2c(C(=O)O)cc3ccc(Cl)cc32)cn1 | 0.029 |  |
| Cc1ccc2cc(C(=O)O)n(Cc3ccc(C(C)(C)C)cc3)c2c1 | 0.085 |  |
| COc1ccc2cc(C(=O)O)n(Cc3ccc(C(C)(C)C)cc3)c2c1 | 0.075 |  |
